Laboratory results reported in patent US9994546B2, “Cyclopropylamines as LSD1 inhibitors” (Incyte Corporation, priority 2014, dated 2018).

The compounds below were run against LSD-1 enzyme (Homo sapiens (Human), UniProt O60341) (assay: LANCE LSD1/KDM1A demethylase assay (LSD1 histone demethylase biochemical assay)). Settings: 1 nM LSD-1 enzyme, 1 hour preincubation at 25° C., 0.4 μM biotin-labeled Histone H3 peptide substrate.
Protocol: LANCE LSD1/KDM1A demethylase assay—10 μL of 1 nM LSD-1 enzyme (ENZO BML-SE544-0050) in the assay buffer (50 mM Tris, pH 7.5, 0.01% Tween-20, 25 mM NaCl, 5 mM DTT) were preincubated for 1 hour at 25° C. with 0.8 μL compound/DMSO dotted in black 384 well polystyrene plates. […] After stopping the reactions plates were incubated for 30 minutes and read on a PHERAstar FS plate reader (BMG Labtech).
Work on CC(C)NC(=O)c1cc(F)c(N2CC(CC#N)(N3CCC(CN[C@@H]4C[C@H]4c4ccccc4)CC3)C2)cc1F (relative stereo) [Example 35, 4-[3-(Cyanomethyl)-3-(4-{[(trans-2-phenylcyclopropyl)amino]methyl}piperidin-1-yl)azetidin-1-yl]-2,5-difluoro-N-isopropylbenzamide] yielded an IC50 of at most 100 nM. In the case of N#CCC1(N2CCC(CN[C@@H]3C[C@H]3c3ccccc3)CC2)CN(c2ncccc2C(F)(F)F)C1 (relative stereo) [Example 36, {3-(4-{[(trans-2-Phenylcyclopropyl)amino]methyl}piperidin-1-yl)-1-[3-(trifluoromethyl)pyridin-2-yl]azetidin-3-yl}acetonitrile], the IC50 is reported as at most 100 nM. With N#CCC1(N2CCC(CN[C@@H]3C[C@H]3c3ccccc3)CC2)CN(c2ccc(C(F)(F)F)cn2)C1 (relative stereo) [Example 37, {3-(4-{[(trans-2-Phenylcyclopropyl)amino]methyl}piperidin-1-yl)-1-[5-(trifluoromethyl)pyridin-2-yl]azetidin-3-yl}acetonitrile] the IC50 was at most 100 nM. For N#CCC1(N2CCC(CN[C@@H]3C[C@H]3c3ccccc3)CC2)CN(c2cccc(Cl)c2C#N)C1 (relative stereo) [Example 38, 2-Chloro-6-[3-(cyanomethyl)-3-(4-{[(trans-2-phenylcyclopropyl)amino]methyl}piperidin-1-yl)azetidin-1-yl]benzonitrile], the IC50 was at most 100 nM. Compound N#CCC1(N2CCC(CN[C@@H]3C[C@H]3c3ccccc3)CC2)CN(c2ccccc2C#N)C1 (relative stereo) [Example 39, 2-[3-(Cyanomethyl)-3-(4-{[(trans-2-phenylcyclopropyl)amino]methyl}piperidin-1-yl)azetidin-1-yl]benzonitrile] has an IC50 of at most 100 nM. With N#CCC1(N2CCC(CN[C@@H]3C[C@H]3c3ccccc3)CC2)CN(c2ccc(C#N)cc2)C1 (relative stereo) [Example 40, 4-[3-(Cyanomethyl)-3-(4-{[(trans-2-phenylcyclopropyl)amino]methyl}piperidin-1-yl)azetidin-1-yl]benzonitrile] the IC50 was at most 100 nM. COC(=O)N1CC(CC#N)(N2CCC(CN[C@@H]3C[C@H]3c3ccccc3)CC2)C1 (relative stereo) [Example 41, Methyl 3-(cyanomethyl)-3-(4-{[(trans-2-phenylcyclopropyl)amino]methyl}piperidin-1-yl)azetidine-1-carboxylate] gave an IC50 of at most 100 nM. N#CCC1(N2CCC(CN[C@@H]3C[C@H]3c3ccccc3)CC2)CN(C(=O)Nc2ccc(F)cc2F)C1 (relative stereo) [Example 42, 3-(Cyanomethyl)-N-(2,4-difluorophenyl)-3-(4-{[(trans-2-phenylcyclopropyl)amino]methyl}piperidin-1-yl)azetidine-1-carboxamide] gave an IC50 of at most 100 nM. N#CCC1(N2CCC(CN[C@@H]3C[C@H]3c3ccccc3)CC2)CN(C(=O)Nc2cccc(Cl)c2F)C1 (relative stereo) [Example 43, N-(3-Chloro-2-fluorophenyl)-3-(cyanomethyl)-3-(4-{[(trans-2-phenylcyclopropyl)amino]methyl}piperidin-1-yl)azetidine-1-carboxamide] gave an IC50 of at most 100 nM. In the case of N#CCC1(N2CCC(CN[C@@H]3C[C@H]3c3ccccc3)CC2)CN(C(=O)c2cc(F)cc(F)c2)C1 (relative stereo) [Example 44, [1-(3,5-Difluorobenzoyl)-3-(4-{[(trans-2-phenylcyclopropyl)amino]methyl}piperidin-1-yl)azetidin-3-yl]acetonitrile], the IC50 is reported as at most 100 nM. N#CCC1(N2CCC(CN[C@@H]3C[C@H]3c3ccccc3)CC2)CN(C(=O)c2ccccc2)C1 (relative stereo) [Example 45, [1-Benzoyl-3-(4-{[(trans-2-phenylcyclopropyl)amino]methyl}piperidin-1-yl)azetidin-3-yl]acetonitrile] was tested, and the IC50 was at most 100 nM. N#CCC1(N2CCC(CN[C@@H]3C[C@H]3c3ccccc3)CC2)CN(C(=O)c2ccccc2F)C1 (relative stereo) [Example 46, [1-(2-Fluorobenzoyl)-3-(4-{[(trans-2-phenylcyclopropyl)amino]methyl}piperidin-1-yl)azetidin-3-yl]acetonitrile] showed an IC50 of at most 100 nM. N#CCC1(N2CCC(CN[C@@H]3C[C@H]3c3ccccc3)CC2)CN(C(=O)c2cccc(F)c2)C1 (relative stereo) [Example 47, [1-(3-Fluorobenzoyl)-3-(4-{[(trans-2-phenylcyclopropyl)amino]methyl}piperidin-1-yl)azetidin-3-yl]acetonitrile] gave an IC50 of at most 100 nM. N#CCC1(N2CCC(CN[C@@H]3C[C@H]3c3ccccc3)CC2)CN(C(=O)c2ccc(F)cc2)C1 (relative stereo) [Example 48, [1-(4-Fluorobenzoyl)-3-(4-{[(trans-2-phenylcyclopropyl)amino]methyl}piperidin-1-yl)azetidin-3-yl]acetonitrile] was tested, and the IC50 was at most 100 nM. Work on CN1CC(CC#N)(N2CCC(CN[C@@H]3C[C@H]3c3ccccc3)CC2)C1 (relative stereo) [Example 49, [1-Methyl-3-(4-{[(trans-2-phenylcyclopropyl)amino]methyl}piperidin-1-yl)azetidin-3-yl]acetonitrile] yielded an IC50 of at most 100 nM. O=C(O)CC1(N2CCC(CN[C@@H]3C[C@H]3c3ccccc3)CC2)CNC1 (relative stereo) [Example 50, [3-(4-{[(trans-2-Phenylcyclopropyl)amino]methyl}piperidin-1-yl)azetidin-3-yl]acetic acid] showed an IC50 of at most 100 nM. Work on CNC(=O)CC1(N2CCC(CN[C@@H]3C[C@H]3c3ccccc3)CC2)CNC1 (relative stereo) [Example 51, N-Methyl-2-(3-(4-((trans-2-phenylcyclopropylamino)methyl)piperidin-1-yl)azetidin-3-yl)acetamide] yielded an IC50 of at most 100 nM. For CN(C)C(=O)CC1(N2CCC(CN[C@@H]3C[C@H]3c3ccccc3)CC2)CNC1 (relative stereo) [Example 52, N,N-Dimethyl-2-(3-(4-((trans-2-phenylcyclopropylamino)methyl)piperidin-1-yl)azetidin-3-yl)acetamide], the IC50 was at most 100 nM. In the case of C[C@H](NC(=O)c1cc(F)c(N2CC(CC#N)(N3CC(CNC4CC4c4ccccc4)C3)C2)cc1F)C(F)(F)F (stereo partly drawn) [Example 27, 4-(3′-(Cyanomethyl)-3-{[(trans-2-phenylcyclopropyl)amino]methyl}-1,3′-biazetidin-1′-yl)-2,5-difluoro-N-[(1S)-2,2,2-trifluoro-1-methylethyl]benzamide], the IC50 is reported as at most 100 nM. Work on N#CC1(c2ccccc2)CCC(N2CC(CNC3CC3c3ccccc3)C2)CC1 (stereo not drawn) [Example 30, 1-Phenyl-4-(3-{[(trans-2-phenylcyclopropyl)amino]methyl}azetidin-1-yl)cyclohexanecarbonitrile] yielded an IC50 of at most 100 nM. With O=C(O)CC1(N2CCC(CN[C@@H]3C[C@H]3c3ccccc3)(Cc3ccc(F)cc3)CC2)CCC1 [Example 53, {1-[4-(4-fluorobenzyl)-4-({[(1R,2S)-2-phenylcyclopropyl]amino}methyl)piperidin-1-yl]cyclobutyl}acetic acid] the IC50 was at most 100 nM. With COCC1(CN[C@@H]2C[C@H]2c2ccccc2)CCN(C2(CC(=O)O)CCC2)CC1 [Example 54, {1-[4-(methoxymethyl)-4-({[(1R,2S)-2-phenylcyclopropyl]amino}methyl)piperidin-1-yl]cyclobutyl}acetic acid] the IC50 was at most 100 nM. For CC1(CN[C@@H]2C[C@H]2c2ccccc2)CCN(C2(CC(=O)O)CCC2)CC1 [Example 55, {1-[4-methyl-4-({[(1R,2S)-2-phenylcyclopropyl]amino}methyl)piperidin-1-yl]cyclobutyl}acetic acid], the IC50 was at most 100 nM. CN(C)C(=O)CC1(N2CCC(C)(CN[C@@H]3C[C@H]3c3ccccc3)CC2)CCC1 [Example 56, N,N-dimethyl-2-{1-[4-methyl-4-({[(1R,2S)-2-phenylcyclopropyl]amino}methyl)piperidin-1-yl]cyclobutyl}acetamide] showed an IC50 of at most 100 nM. Compound CNC(=O)CC1(N2CCC(C)(CN[C@@H]3C[C@H]3c3ccccc3)CC2)CCC1 [Example 57, N-methyl-2-{1-[4-methyl-4-({[(1R,2S)-2-phenylcyclopropyl]amino}methyl)piperidin-1-yl]cyclobutyl}acetamide] has an IC50 of at most 100 nM. For CS(=O)(=O)N1CC(CC#N)(N2CCC(N[C@@H]3C[C@H]3c3ccccc3)CC2)C1 [Example 58, [1-(methylsulfonyl)-3-(4-{[(1R,2S)-2-phenylcyclopropyl]amino}piperidin-1-yl)azetidin-3-yl]acetonitrile], the IC50 was at most 100 nM. CN1CC(CC#N)(N2CCC(N[C@@H]3C[C@H]3c3ccccc3)CC2)C1 [Example 59, [1-methyl-3-(4-{[(1R,2S)-2-phenylcyclopropyl]amino}piperidin-1-yl)azetidin-3-yl]acetonitrile] showed an IC50 of at most 100 nM. With N#CCC1(N2CCC(N[C@@H]3C[C@H]3c3ccccc3)CC2)CNC1 [Example 60, [3-(4-{[(1R,2S)-2-phenylcyclopropyl]amino}piperidin-1-yl)azetidin-3-yl]acetonitrile] the IC50 was at most 100 nM. N#CCC1(N2CCC(N[C@H]3C[C@@H]3c3ccccc3)CC2)CNC1 [Example 61, [3-(4-{[(1S,2R)-2-phenylcyclopropyl]amino}piperidin-1-yl)azetidin-3-yl]acetonitrile] gave an IC50 of at most 100 nM. CCS(=O)(=O)N1CC(CC#N)(N2CCC(N[C@@H]3C[C@H]3c3ccccc3)CC2)C1 [Example 62, [1-(ethylsulfonyl)-3-(4-{[(1R,2S)-2-phenylcyclopropyl]amino}piperidin-1-yl)azetidin-3-yl]acetonitrile] gave an IC50 of at most 100 nM. For CN(C)S(=O)(=O)N1CC(CC#N)(N2CCC(N[C@@H]3C[C@H]3c3ccccc3)CC2)C1 [Example 63, 3-(cyanomethyl)-N,N-dimethyl-3-(4-{[(1R,2S)-2-phenylcyclopropyl]amino}piperidin-1-yl)azetidine-1-sulfonamide], the IC50 was at most 100 nM.
